Laboratory results from US11339130B1 (Blade Therapeutics, Inc., priority 2016, dated 2022).

How the values were obtained:
[1] = tested on: Calpain activity in SH-SY5Y cells (SBDP-150); experiment: SH-SY5Y Spectrin western blot assay (SBDP-150 breakdown product, A23187-induced); type: cell-based; conditions: Homo sapiens; Column D; SH-SY5Y cells, A23187-induced SBDP-150; read-out: SH-SY5Y Spectrin IC50
[2] = target: T1, Human Calpain 1/NS1 (Homo sapiens, UniProt P07384); experiment: Calpain inhibition continuous fluorescence (FRET) assay, Human Calpain 1/NS1; type: biochemical; conditions: Column A; read-out: Human Calpain 1/NS1 IC50
T1 sequence (P07384 1-714): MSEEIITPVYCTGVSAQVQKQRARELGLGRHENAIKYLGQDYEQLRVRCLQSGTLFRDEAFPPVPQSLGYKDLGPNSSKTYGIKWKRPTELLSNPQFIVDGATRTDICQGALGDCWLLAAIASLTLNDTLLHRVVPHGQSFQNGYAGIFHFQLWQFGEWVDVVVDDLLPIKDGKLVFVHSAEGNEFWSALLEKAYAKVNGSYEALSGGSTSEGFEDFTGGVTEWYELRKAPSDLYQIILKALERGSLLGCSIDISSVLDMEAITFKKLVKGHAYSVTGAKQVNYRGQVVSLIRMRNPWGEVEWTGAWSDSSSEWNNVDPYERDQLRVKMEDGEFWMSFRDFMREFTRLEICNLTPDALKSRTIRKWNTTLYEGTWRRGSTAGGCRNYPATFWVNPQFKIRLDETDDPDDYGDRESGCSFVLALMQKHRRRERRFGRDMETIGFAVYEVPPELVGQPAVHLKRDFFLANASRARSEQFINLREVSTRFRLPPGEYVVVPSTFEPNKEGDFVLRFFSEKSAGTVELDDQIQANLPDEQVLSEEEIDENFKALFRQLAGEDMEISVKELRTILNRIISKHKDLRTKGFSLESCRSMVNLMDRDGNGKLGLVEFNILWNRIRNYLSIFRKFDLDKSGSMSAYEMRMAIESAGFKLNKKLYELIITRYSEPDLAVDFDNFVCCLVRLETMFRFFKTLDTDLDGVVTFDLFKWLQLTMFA
T1 sequence (P04632 1-268 partner): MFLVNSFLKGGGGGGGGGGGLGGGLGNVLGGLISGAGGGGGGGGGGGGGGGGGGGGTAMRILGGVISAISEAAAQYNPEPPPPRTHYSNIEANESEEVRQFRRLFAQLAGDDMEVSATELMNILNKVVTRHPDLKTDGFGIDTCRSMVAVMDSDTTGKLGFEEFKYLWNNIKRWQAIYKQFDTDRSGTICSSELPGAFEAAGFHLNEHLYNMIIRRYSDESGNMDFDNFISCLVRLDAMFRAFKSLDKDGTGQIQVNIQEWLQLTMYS
In short: (§1)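 Continuous FRET read (ex 490/em 520 nm, 10 min) of calpain 1, 2 or 9 cleaving an internally quenched 5-FAM peptide, triggered by substrate with CaCl2 after enzyme–inhibitor incubation at ambient 25 °C, pH 7.5 Tris/NaCl/DTT buffer. IC50 from initial rates (1-5 min) via 4-parameter fit.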

[3] = target: T2, Human Calpain 2/NS1 (Homo sapiens, UniProt P17655); experiment: Calpain inhibition continuous fluorescence (FRET) assay, Human Calpain 2/NS1; type: biochemical; conditions: Column B; read-out: Human Calpain 2/NS1 IC50
T2 sequence (P17655 1-700): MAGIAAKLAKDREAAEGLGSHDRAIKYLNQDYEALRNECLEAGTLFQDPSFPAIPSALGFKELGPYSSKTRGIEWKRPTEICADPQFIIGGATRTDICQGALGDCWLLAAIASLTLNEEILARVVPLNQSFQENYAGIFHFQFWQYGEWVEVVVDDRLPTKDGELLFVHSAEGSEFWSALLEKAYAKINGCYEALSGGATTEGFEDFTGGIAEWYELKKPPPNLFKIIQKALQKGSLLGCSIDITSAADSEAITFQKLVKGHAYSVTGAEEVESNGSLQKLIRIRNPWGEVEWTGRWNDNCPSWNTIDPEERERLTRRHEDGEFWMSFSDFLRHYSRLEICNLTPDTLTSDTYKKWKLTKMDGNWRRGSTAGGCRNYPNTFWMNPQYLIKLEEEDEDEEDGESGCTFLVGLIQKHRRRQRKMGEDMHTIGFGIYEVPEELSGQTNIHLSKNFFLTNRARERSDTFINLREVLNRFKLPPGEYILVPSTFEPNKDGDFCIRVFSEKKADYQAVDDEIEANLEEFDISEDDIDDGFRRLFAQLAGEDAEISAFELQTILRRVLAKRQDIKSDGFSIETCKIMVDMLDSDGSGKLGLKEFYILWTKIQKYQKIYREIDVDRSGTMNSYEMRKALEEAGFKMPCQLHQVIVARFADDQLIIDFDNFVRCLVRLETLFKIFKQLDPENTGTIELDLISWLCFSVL
T2 sequence (P04632 1-268 partner): T1 sequence (P04632 1-268 partner)
In short: as §1

[4] = tested on: Calpain activity in SH-SY5Y cells; experiment: SH-SY5Y + AMC fluorescence assay (Suc-LLVY-AMC substrate); type: cell-based; conditions: Column E, read-out: SH-SY5Y + AMC IC50
[5] = target: T3, Human Calpain 9/NS1 (Homo sapiens, UniProt O14815); experiment: Calpain inhibition continuous fluorescence (FRET) assay, Human Calpain 9/NS1; type: biochemical; conditions: Column C; read-out: Human Calpain 9/NS1 IC50
T3 sequence (O14815 1-690): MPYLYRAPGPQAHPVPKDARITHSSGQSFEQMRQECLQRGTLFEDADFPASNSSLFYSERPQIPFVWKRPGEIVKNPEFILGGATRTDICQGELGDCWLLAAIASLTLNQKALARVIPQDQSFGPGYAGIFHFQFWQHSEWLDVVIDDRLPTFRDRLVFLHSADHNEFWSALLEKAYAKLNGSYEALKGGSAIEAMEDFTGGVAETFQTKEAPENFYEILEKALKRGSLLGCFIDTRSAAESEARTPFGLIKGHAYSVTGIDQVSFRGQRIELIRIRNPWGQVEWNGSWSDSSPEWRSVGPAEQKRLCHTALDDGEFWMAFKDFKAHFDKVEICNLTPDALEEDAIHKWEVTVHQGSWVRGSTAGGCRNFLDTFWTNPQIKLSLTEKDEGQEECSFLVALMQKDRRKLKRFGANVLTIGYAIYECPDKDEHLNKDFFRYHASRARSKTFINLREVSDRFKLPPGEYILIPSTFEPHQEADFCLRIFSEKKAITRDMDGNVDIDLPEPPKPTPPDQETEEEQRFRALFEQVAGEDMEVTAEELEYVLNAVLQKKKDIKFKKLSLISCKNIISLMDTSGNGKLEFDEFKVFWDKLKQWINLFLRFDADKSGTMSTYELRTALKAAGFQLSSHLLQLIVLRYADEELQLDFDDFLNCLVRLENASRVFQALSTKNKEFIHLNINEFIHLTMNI
T3 sequence (P04632 1-268 partner): T1 sequence (P04632 1-268 partner)
In short: as §1

Row | IC50 [1] [µM] | IC50 [2] [µM] | IC50 [3] [µM] | IC50 [4] [µM] | IC50 [5] [µM] | SMILES
1 | < 10 | < 3 | < 3 | 10 to 25 | < 3 | Cn1nc(C(=O)N[C@@H](Cc2ccccc2)C(=O)C(N)=O)c(-c2ccccc2)n1 [Compound 259, (S)—N-(4-amino-3,4-dioxo-1-phenylbutan-2-yl)-2-methyl-5-phenyl-2H-1,2,3-triazole-4-carboxamide]
2 | > 25 | < 3 | < 3 | > 25 | < 3 | Cc1nc(-c2ccccn2)c(C(=O)N[C@@H](Cc2ccccc2)C(=O)C(N)=O)o1 [Compound 266, (S)—N-(4-amino-3,4-dioxo-1-phenylbutan-2-yl)-2-methyl-4-(pyridin-2-yl)oxazole-5-carboxamide]
3 | > 25 | < 3 | < 3 | > 25 | < 3 | Cn1cnc(-c2ccccc2)c1C(=O)N[C@@H](Cc1ccccc1)C(=O)C(N)=O [Compound 268, (S)—N-(4-amino-3,4-dioxo-1-phenylbutan-2-yl)-1-methyl-4-phenyl-1H-imidazole-5-carboxamide]
4 | < 10 | < 3 | < 3 | < 10 | < 3 | Cc1cc(C(=O)N[C@@H](Cc2ccccc2)C(=O)C(N)=O)n(-c2ccccc2)n1 [Compound 276, (S)—N-(4-amino-3,4-dioxo-1-phenylbutan-2-yl)-3-methyl-1-phenyl-1H-pyrazole-5-carboxamide]
5 | 10 to 25 | < 3 | < 3 | < 10 | < 3 | NC(=O)C(=O)[C@H](Cc1ccccc1)NC(=O)c1conc1-c1ccccc1F [Compound 277, (S)—N-(4-amino-3,4-dioxo-1-phenylbutan-2-yl)-3-(2-fluorophenyl)isoxazole-4-carboxamide]
6 | < 10 | < 3 | < 3 | > 25 | < 3 | NC(=O)C(=O)[C@H](Cc1ccccc1)NC(=O)c1c(-c2ccccc2)noc1C(F)(F)F [Compound 278, (S)—N-(4-amino-3,4-dioxo-1-phenylbutan-2-yl)-3-phenyl-5-(trifluoromethyl)isoxazole-4-carboxamide]
7 | 10 to 25 | < 3 | < 3 | < 10 | 3 to 10 | Cc1cc(C(=O)N[C@H](C=O)Cc2ccccc2)n(-c2ccncn2)n1 [Compound 279, (S)-3-methyl-N-(1-oxo-3-phenylpropan-2-yl)-1-(pyrimidin-4-yl)-1H-pyrazole-5-carboxamide]
8 | 10 to 25 | < 3 | < 3 | < 10 | < 3 | Cn1nc(Cl)c(C(=O)NC(Cc2ccccc2)C(=O)C(N)=O)c1Cl (centres unmarked) [Compound 282, N-(4-amino-3,4-dioxo-1-phenylbutan-2-yl)-3,5-dichloro-1-methyl-1H-pyrazole-4-carboxamide]
9 | > 25 | < 3 | < 3 | 10 to 25 | < 3 | Cc1cc(C(=O)N[C@H](C=O)Cc2ccccc2)n(-c2cnccn2)n1 [Compound 285, (S)-3-methyl-N-(1-oxo-3-phenylpropan-2-yl)-1-(pyrazin-2-yl)-1H-pyrazole-5-carboxamide]
10 | < 10 | < 3 | < 3 | > 25 | < 3 | NC(=O)C(=O)C(Cc1ccccc1)NC(=O)c1cc(C(F)(F)F)sc1-c1ccccc1 (centres unmarked) [Compound 286]
11 | > 25 | < 3 | < 3 | > 25 | < 3 | NC(=O)C(=O)[C@H](Cc1ccccc1)NC(=O)c1conc1-c1ccccn1 [Compound 288, (S)—N-(4-amino-3,4-dioxo-1-phenylbutan-2-yl)-3-(pyridin-2-yl)isoxazole-4-carboxamide]
12 | 10 to 25 | < 3 | < 3 | > 25 | < 3 | NC(=O)C(=O)[C@H](Cc1ccccc1)NC(=O)c1conc1-c1ccc(F)cc1 [Compound 289, (S)—N-(4-amino-3,4-dioxo-1-phenylbutan-2-yl)-3-(4-fluorophenyl)isoxazole-4-carboxamide]
13 | 10 to 25 | < 3 | < 3 | < 10 | < 3 | NC(=O)C(=O)[C@H](Cc1ccccc1)NC(=O)c1nonc1-c1ccccc1 [Compound 293, (S)—N-(4-amino-3,4-dioxo-1-phenylbutan-2-yl)-4-phenyl-1,2,5-oxadiazole-3-carboxamide]
14 | 10 to 25 | 3 to 10 | 3 to 10 | > 25 | < 3 | Cc1cc(C(=O)N[C@@H](Cc2ccccc2)C(=O)C(N)=O)n(-c2nc3ccccc3n2C)n1 [Compound 294, (S)—N-(4-amino-3,4-dioxo-1-phenylbutan-2-yl)-3-methyl-1-(1-methyl-1H-benzo[d]imidazol-2-yl)-1H-pyrazole-5-carboxamide]
15 | < 10 | < 3 | < 3 | > 25 | < 3 | COc1ccc2nc(-n3nc(C(=O)N[C@@H](Cc4ccccc4)C(=O)C(N)=O)cc3C)sc2c1 [Compound 296, (S)—N-(4-amino-3,4-dioxo-1-phenylbutan-2-yl)-1-(6-methoxybenzo[d]thiazol-2-yl)-5-methyl-1H-pyrazole-3-carboxamide]
16 | 10 to 25 | < 3 | < 3 | < 10 | < 3 | NC(=O)C(=O)[C@H](Cc1ccccc1)NC(=O)c1ocnc1-c1ccccc1 [Compound 303, (S)—N-(4-amino-3,4-dioxo-1-phenylbutan-2-yl)-4-phenyloxazole-5-carboxamide]
